Source: US6884600B1, “Protein phosphatase-1 catalytic subunit interactions” (Medical Research Council London, priority 1996, dated 2005)
“Also recorded” adds a separate entry of the source.

Tests used:
PP1M [1] = biological target: T1, PP1M (Gallus gallus, UniProt P62207); assay: MLC20 phosphatase activity of PP1M; assay type: biochemical, chicken
T1 construct: from tissue; host or cells: chicken gizzard smooth muscle
Procedure: (§1) (A) The phosphorylase phosphatase (PhP) activity of PP1M (closed circles) and its MLC20 phosphatase (MLCP) activity (open circles) were assayed after preincubation for 15 minutes at 30° C. with the indicated concentrations of GM-(G63-T93). Activities are shown relative to control incubations in which GM-(G63-T93) was omitted. Similar results were obtained in three experiments.
(§2) (A) PP1M from chicken gizzard smooth muscle (Alessi et al., 1992) was diluted and incubated for 15 min at 30° C. with the peptide […] (SEQ ID No 4), corresponding to the sequence in p53BP2 that contains the RVXF motif. Reactions were started with either ^32P-labelled MLC20 or glycogen phosphorylase and the MLC20 phosphatase (open circles) and phosphorylase phosphatase (PhP, closed circles) activities were determined. The results are expressed as a percentage of the activity determined in control incubations where the p53BP2 peptide was omitted (100%). Similar results were obtained in three separate experiments. (B) same as (A) except that the peptide was incubated with diluted hepatic glycogen particles containing PP1-GL before measuring the PhP activity. Similar results were obtained in three separate experiments.
(§3) The myosin-associated form of PP1 (PP1M) was from chicken gizzard and the glycogen-associated form of PP1 (PP1G) from rabbit skeletal muscle. […]

PP1c [2] = biological target: T2, PP1c (Oryctolagus cuniculus, UniProt P62143); assay: Phosphorylase phosphatase activity of PP1c; assay type: biochemical, rabbit
T2 construct: from tissue; host or cells: rabbit skeletal muscle (PP1G dissociated with LiBr)
T2 sequence (P62143 whole entry): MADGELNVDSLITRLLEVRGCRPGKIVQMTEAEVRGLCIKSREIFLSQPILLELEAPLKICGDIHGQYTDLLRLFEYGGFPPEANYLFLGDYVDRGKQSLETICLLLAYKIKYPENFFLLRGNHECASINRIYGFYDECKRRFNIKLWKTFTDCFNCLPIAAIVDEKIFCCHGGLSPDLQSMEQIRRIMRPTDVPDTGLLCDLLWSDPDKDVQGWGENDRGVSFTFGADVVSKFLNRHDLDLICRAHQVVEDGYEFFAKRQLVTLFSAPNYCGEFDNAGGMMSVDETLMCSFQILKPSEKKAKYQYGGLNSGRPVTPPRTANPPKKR
Procedure: (§4) A,B; Effects of M110-(M1-E309) (closed circles), M110-(M1-F38) (open circles) and M110-(D39-E309) (open triangles) on the MLC20 phosphatase […] and phosphorylase phosphatase (B) activities of PP1c were measured after incubating PP1c for 15 minutes at 30° C. with each fragment. The results are presented as a percentage of those obtained in experiments where the M110 fragments were omitted.
(§5) C,D; The effect of M110-(M1-A150) (open circles) and M110-(L24-Y496) (closed circles) on the MLC20 phosphatase (C) and phosphorylase phosphatase (D) activities of PP1c were measured as in A,B.
(B) The phosphorylase phosphatase activity of PP1c was assayed as in A in the presence or absence of 1 μM GM-(G63-T93) and 1.0 nM M110-(M1-E309). The results are presented (SEM for three experiments) as a percentage of the PP1c activity measured in the absence of GM-(63-T93), M110-(M1-F38) or M110-(M1-E309).
(§6) The myosin-associated form of PP1 (PP1M) was from chicken gizzard and the glycogen-associated form of PP1 (PP1G) from rabbit skeletal muscle. The β isoform of PP1c was released from PP1G by incubation for 2 hours in 2M LiBr, then purified by gel-filtration on a 30×1 cm column of Superose 12 (Pharmacia, Milton Keynes, U.K.) in the presence of 0.5M LiBr. Glycogen protein particles from rat liver were used as the source of hepatic PP1G Digoxygenin-labelled PP1c (γ1-isoform, hereafter termed PP1) was prepared as in [9]. GL was expressed in E. coli as a glutathione-S-transferase (GST) fusion protein [7], termed GST-GL. The catalytic subunit of PP2A from bovine heart (PP2AC) was provided by Dr R. MacKintosh in this Unit. The phosphorylatable myosin light chain (MLC20) and heavy meromyosin from chicken gizzard were a gift from Dr M. Ikebe (Case Western Reserve University, Cleveland, USA). Thrombin and benzamidine-Agarose were purchased from Sigma (Poole, UK).
(§7) ^32P-labelled rabbit skeletal muscle phosphorylase a (containing 1.0 mol phosphate per mol subunit) was prepared by phosphorylation with phosphorylase kinase, ^32P-labelled rabbit skeletal muscle glycogen synthase (containing 1.5 mol/mol subunit in the sites 3 region) was prepared by phosphorylation with glycogen synthase kinase-3 [24]). ^32P-labelled chicken gizzard MLC20 and ^32P-labelled chicken gizzard heavy meromyosin (containing 1.0 mol phosphate per mol subunit) were prepared by phosphorylation with smooth muscle myosin light chain kinase. The dephosphorylation of phosphorylase a (10 μM), glycogen synthase (1 μM) and MLC20 (1 μM) and heavy meromyosin (1 μM) was carried out as in [24]. One unit of activity (U) was that amount which released […] of phosphate in one minute.
(§8) PP1c was isolated from the rabbit skeletal muscle PP1-GM complex as described previously (Johnson et al, 1996). Glycogen particles isolated from rat liver (Schelling el al, 1988) served as the source of PP1-GL. The dephosphorylation of glycogen phosphorylase (10 μM) and the isolated MLC20 of smooth muscle myosin (1 μM) by PP1c was carried out as described previously (Cohen et al., 1988; Alessi et al., 1992).

PP1c [3] = biological target: T2, PP1c; assay: MLC20 (myosin P-light chain) phosphatase activity of PP1c; assay type: biochemical
Procedure: as §4, §5
(A) The MLC20 phosphatase activity of PP1c was assayed after incubation for 15 minutes at 30° C. in the presence or absence of 1 μM GM-(G63-T93) and either 0.1 μM M110-(M1-F38) or 0.1 nM M110-(M1-E309).
(1-38, open circles) or M110[M1-K35] (1-35, closed circles) were incubated with PP1c for 15 min at 30° C. and reactions started with the ^32P-labelled MLC20 substrate. The results are expressed as a % of the activity determined in control incubations where the M110 peptides were omitted (100%). Similar results were obtained in three separate experiments.
as §6, §7, §8
^32P-labelled myosin P-light chains containing 1.0 mol phosphate per mol subunit was prepared by phosphorylation with smooth muscle myosin light chain kinase. The dephosphorylation of myosin P-light chain (1 μM) was carried out as in [4] and one unit of activity (U) was that amount which catalysed the release of 1 μmole of phosphate in one min. When assaying PP1M in immunoprecipitates from the myofibrillar extracts, the tubes were shaken continuously and 3 nM okadaic acid was included to inhibit any PP2A present.

PP1M [4] = biological target: T1, PP1M; assay: Phosphorylase phosphatase activity of PP1M; assay type: biochemical, chicken
Procedure: as §1, §2, §3

PP1M [5] = biological target: T1, PP1M; assay: Gel filtration of PP1M on Superose 12 with or without GM-(G63-T93); assay type: binding, chicken
Procedure: (B,C) PPIM was incubated for 15 minutes at 30° C. in the absence (B) and presence (C) of […] GM-(G63-T93), then passed through a 30×1 cm column of Superose 12 equilibrated at ambient temperature in 50 mM Tris/HCl pH 7.5, 0.2M NaCl, 0.1 mM EGTA, 0.1% (by vol) 2-mercaptoethanol, 0.03% (by mass) Brij 35 in the absence (B) or presence (C) of 1 μM GM-(G63-T93). Fractions (0.25 ml) were assayed for MLC20 phosphatase (MLCP) in B and for phosphorylase phosphatase (PhP) activity in C. The arrows denote the position of ferritin (450 kDa) and ovalbumin (43 kDa).

PP1GL [6] = assay: Glycogen synthase phosphatase activity of PP1GL; assay type: biochemical, rat
Procedure: as §6, with “UK). […]” for “UK).”

PP1GL [7] = assay: Phosphorylase phosphatase activity of PP1GL (hepatic glycogen particles); assay type: biochemical, rat
Procedure: Hepatic glycogen particles were diluted in assay buffer to 0.6 phosphorylase phosphatase (PhP) mU per ml, incubated for 15 minutes at 30° C. with GM-(G63-T93) (closed circles), GM-(G63-K80) (open circles) or GM-(G63-N75) (closed triangles) and assayed as described in Example 1. The open triangles show the effect of GM-(G63-N75) which had been phosphorylated at Ser67 by PKA (pGM-(G63-N75)). Similar results were obtained in four experiments.
(A) Hepatic glycogen protein particles containing PP1-GL were diluted and incubated for 15 min at 30° C. with the indicated concentrations of either M110[M1-F38] (open circles) or M110[M1-K35] (closed circles) and the phosphatase reactions were initiated by addition of ^32P-labelled glycogen phosphorylase. The results are expressed as a percentage of the activity determined in control incubations where the M110 peptides were omitted. Similar results were obtained in three separate experiments. (B) The experiment was carried out as in (A), except that the peptide GM[G63-N75] (“wild type”, WT) and variants in which either Val 66 (V66A) (closed triangles) or Phe 68 (F68A) (closed circles) were changed to Ala, were used instead of the M110 peptides. Similar results were obtained in three separate experiments.
as §6, §7, §8

cultured cells = assay: Effect of p53BP2 peptide introduced into cultured cells (cell cycle, apoptosis; WAF1 ELISA, Nuclear Matrix Protein ELISA); assay type: cell-based; settings: Example 5, present tense, no data
Description: The function of p53BP2 is ascertained by examining the in vivo effect of peptides based on the sequence of the p53BP2 binding site to PP1. This may be done by reference to the consensus peptide sequence described in the previous Examples and by reference to the crystal structure in Example 2. The peptide is introduced into cultured cells using penetratin available from Appligene. Other importins may also be used. Alternatively cDNA specifying p53BP2 proteins mutant in the p53BP2 binding site to PP1 are transfected in cultured cells. The effect of these agents on the cell cycle and apoptosis are assessed by a number of methods, for example WAF1 ELISA and Nuclear Matrix Protein ELISA assays (Amersham).

T1 sequence (P62207 whole entry): as the sequence (P62143 whole entry) above

GRRVSFADNFGFNLVSVKEFDTWELPSVSTT [GM-(G63-T93), synthetic peptide, residues 63-93 of rabbit GM]
suppression of the MLC20 phosphatase activity of PP1M (PP1M [1]; 10 μM peptide): 60-65% | prevention of suppression of the phosphorylase phosphatase activity of PP1c by a regulatory subunit or fragment (PP1c [2]): prevented bacterially expressed GST-GL from suppressing the phosphorylase phosphatase activity of PP1c; also recorded: prevented M110-(M1-E309) from suppressing the phosphorylase phosphatase activity of PP1c | maximal stimulation of the phosphorylase phosphatase activity of PP1c (PP1c [2]; SEM for three experiments): 37+1.4% | prevention of stimulation of the MLC20 phosphatase activity of PP1c by M110 fragments (PP1c [3]): prevented M110-(M1-F38) or M110-(M1-E309) from stimulating the MLC20 phosphatase activity of PP1c | increase in the phosphorylase phosphatase activity of PP1M (PP1M [4]; 10 μM peptide): about 7 fold | dissociation of PP1M in gel-filtration experiments (PP1M [5]): displaced the M110 subunit from PP1M | effect on the glycogen synthase phosphatase activity of PP1GL (PP1GL [6]): no effect | displacement of GL from PP1c (PP1GL [7]): does not displace GL from PP1c | increase in the phosphorylase phosphatase activity of PP1GL (PP1GL [7]; hepatic glycogen particles, 15 min 30° C.): sixfold | EC50 (PP1GL [7]; hepatic glycogen particles, 15 min 30° C., read-out: concentration required for 50% activation of the phosphorylase phosphatase activity of PP1GL): 30 nM

GKRTNLRKTGSERIAHGMRVKFNPLALLLDSC [32 residue peptide from p53BP2]
effect on the MLC20 phosphatase activity of PP1M (PP1M [1]): decrease in the rate of dephosphorylation of the MLC20 subunit of smooth muscle myosin | effect on the phosphorylase phosphatase activity of PP1M (PP1M [4]): increase in the rate of dephosphorylation of glycogen phosphorylase | effect of the peptide in cultured cells (cultured cells): modulate the interaction between PP1 and p53BP2 in vivo and affect cell regulation and apoptosis | effect on the phosphorylase phosphatase activity of PP1GL (PP1GL [7]; hepatic glycogen particles containing PP1-GL): increase in the rate of dephosphorylation of glycogen phosphorylase
